The record followed here is ChEMBL document CHEMBL4130507, “Therapeutic investigations of novel indoxyl-based indolines: A drug target validation and Structure-Activity Relationship of angiotensin-converting enzyme inhibitors with cardiovascular regulation and thrombolytic potential” (Eur J Med Chem, 2017).

Calls of active or inactive are those of the source. The rule behind the calls is not given here.

The subject of data set [1] is MCF7. Description: Cytotoxicity against human MCF7 cells at IC50 after 24 to 72 hrs by MTT assay relative to control. Format: functional. (Tetrazolium assays rely on reduction of a dye to a coloured formazan, in cell work by metabolically active cells.)
For data set [2], the target named is T1, Angiotensin-converting enzyme (Homo sapiens, UniProt P12821). Description: Inhibition of ACE (unknown origin) using Hippuryl-L-Histidyl-L-Leucine as substrate after 60 mins by colorimetric method.
T1 sequence (P12821 whole entry): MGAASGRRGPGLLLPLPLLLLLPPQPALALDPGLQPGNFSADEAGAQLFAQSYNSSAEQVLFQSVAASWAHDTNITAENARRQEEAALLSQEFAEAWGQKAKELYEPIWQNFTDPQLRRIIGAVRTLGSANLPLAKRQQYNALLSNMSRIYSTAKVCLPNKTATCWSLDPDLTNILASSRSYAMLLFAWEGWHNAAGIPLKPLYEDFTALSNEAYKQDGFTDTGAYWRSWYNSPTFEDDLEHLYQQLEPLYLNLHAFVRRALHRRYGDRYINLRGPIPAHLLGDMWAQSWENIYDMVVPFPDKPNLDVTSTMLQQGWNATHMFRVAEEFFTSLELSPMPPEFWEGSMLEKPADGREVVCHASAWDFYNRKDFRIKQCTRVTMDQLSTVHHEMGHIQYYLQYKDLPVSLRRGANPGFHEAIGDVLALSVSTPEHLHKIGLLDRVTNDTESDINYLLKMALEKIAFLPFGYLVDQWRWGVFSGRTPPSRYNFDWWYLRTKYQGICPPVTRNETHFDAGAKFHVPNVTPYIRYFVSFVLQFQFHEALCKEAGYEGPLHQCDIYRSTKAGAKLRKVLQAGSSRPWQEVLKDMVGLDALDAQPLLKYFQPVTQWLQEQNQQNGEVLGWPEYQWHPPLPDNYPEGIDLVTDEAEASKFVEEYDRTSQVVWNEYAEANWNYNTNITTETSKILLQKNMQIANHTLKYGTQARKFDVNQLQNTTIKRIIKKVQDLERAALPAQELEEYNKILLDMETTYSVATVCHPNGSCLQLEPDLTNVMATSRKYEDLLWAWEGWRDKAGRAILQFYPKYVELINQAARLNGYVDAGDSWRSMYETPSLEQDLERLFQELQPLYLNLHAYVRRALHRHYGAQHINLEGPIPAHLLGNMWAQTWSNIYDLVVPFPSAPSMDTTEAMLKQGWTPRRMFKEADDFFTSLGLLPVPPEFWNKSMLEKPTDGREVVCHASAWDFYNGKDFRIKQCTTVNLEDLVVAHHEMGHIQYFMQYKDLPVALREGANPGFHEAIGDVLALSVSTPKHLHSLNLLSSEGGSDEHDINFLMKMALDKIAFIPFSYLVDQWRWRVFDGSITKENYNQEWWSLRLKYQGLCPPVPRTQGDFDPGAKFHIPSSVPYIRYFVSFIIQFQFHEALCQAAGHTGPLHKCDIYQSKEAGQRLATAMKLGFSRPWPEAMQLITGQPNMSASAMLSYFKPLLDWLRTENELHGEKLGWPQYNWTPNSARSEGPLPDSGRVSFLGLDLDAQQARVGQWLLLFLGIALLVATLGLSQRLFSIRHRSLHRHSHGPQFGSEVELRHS
Data set [3] relates to MCF7. The experiment in a line: Cytotoxicity against human MCF7 cells after 24 to 72 hrs by MTT assay. Format: functional, cell-based.
A further data set has as its system DNA. The experiment in a line: Inhibition of H2O2-induced Escherichia coli DH5alpha genomic DNA damage at 25 to 250 uL after 24 hrs by ethidium-bromide staining-based agarose gel electrophoresis. Format: nucleic-acid assay. To be noted: Escherichia coli DH5[alpha].
Data set [4] concerns Blood. Description: Thrombolytic activity in human blood after 60 mins. Format: functional, tissue-based.
Data set [5] in a line: Antioxidant activity assessed as H2O2 free radical scavenging activity after 1 hr by UV spectrophotometric analysis. Format: functional.
Data set [6] is described as follows: Antioxidant activity assessed as H2O2 free radical scavenging activity at IC50 after 1 hr by UV spectrophotometric analysis relative to control. Format: functional.
The target of data set [7] is T1, Angiotensin-converting enzyme. Description: Inhibition of ACE (unknown origin) at IC50 using Hippuryl-L-Histidyl-L-Leucine as substrate after 60 mins by colorimetric method relative to control.
A further data set relates to MCF10. The experiment in a line: Cytotoxicity against human MCF10 cells at 10 to 150 ug/ml after 24 to 72 hrs by MTT assay. Format: cell-based.
The test system of data set [8] is Blood. Description: Thrombolytic activity in human blood after 2 hrs relative to control. Format: functional.
The next data set has as its system Erythrocyte. The experiment in a line: Induction of membrane stabilization in human RBC assessed as reduction in hemolysis relative to control. It is filed as functional. Further details: scale not given: the % may be the effect or the level left.
Data set [9] concerns Blood. Description: Thrombolytic activity in human blood after 2 hrs. It is filed as functional, tissue-based.

A word on the IC50: it is the concentration that inhibits the measured activity by half. A word on the inhibition: it is the percentage by which the read-out fell short of the control. Take `O=C1/C(=N\C(=S)NCc2cc3ccccc3cc2O)c2ccccc2N1CCBr`: the Activity in the data set with MCF7 [1] was 82.94%; in data set [5] it was “Dose-dependent effect”; in data set [6], 92.5%; in the data set with MCF10 it was “Non-Toxic”; with Blood [8], 83.5%. The IC50 stood at 4.11 nM in data set [2] and 92 nM in the data set with MCF7 [3]. The inhibition entry in the data set on DNA is “Active”. For the same compound, the result with Blood [4] was Active. Also, the inhibition in [7] came to 90.5%.
For `CCCN1C(=O)/C(=N\C(=S)NCc2cc3ccccc3cc2O)c2ccccc21`, the IC50 in data set [2] is 11.8 nM. Besides, the Activity entry in data set [5] is “Dose-dependent effect”; in [6], 75.1%. The same compound yielded an inhibition in data set [7] of 80.7%.
The like results for `Cc1ccc(C(=O)N2C(=O)/C(=N\C(=S)NCc3cc4ccccc4cc3O)c3ccccc32)cc1` were, in that order, 24.2 nM, “Dose-dependent effect”, 83.1% and 65%.
In turn, `O=C1/C(=N\C(=S)NCc2cc3ccccc3cc2O)c2ccccc2N1c1ccccc1` showed an IC50 in [2] of 19 nM. In addition, the Activity result was “Dose-dependent effect” in data set [5] and 80.8% in data set [6]. This compound also showed an inhibition in data set [7] of 69.2%.
Take `COc1ccc(N2C(=O)/C(=N/C(=S)NCc3cc4ccccc4cc3O)c3ccccc32)cc1`: the midpoint of inhibition in data set [2], the IC50, lay at 9.82 nM. Besides, the Activity result in [5] was “Dose-dependent effect”; in data set [6] it was 79.4%. The compound further displayed an inhibition in [7] of 86.4%.
On to `O=C(O)CN1C(=O)/C(=N\C(=S)NCc2cc3ccccc3cc2O)c2ccccc21`, for which the Activity with MCF7 [1] is 89.02%; in the data set with Erythrocyte, 96%; in [5], “Dose-dependent effect”; in data set [6], 98.1%; in the data set with MCF10, “Non-Toxic”; in the data set with Blood [8], 83.5%. The IC50 in [2] came to 2.85 nM; with MCF7 [3] it was 82 nM; with Blood [9], 35 nM. Besides, the inhibition entry with DNA was “Active”. For the same compound, the result in the data set with Blood [4] was Active. Further, the inhibition in [7] worked out at 96.1%.
As to `O=C1/C(=N\C(=S)NCc2cc3ccccc3cc2O)c2ccccc2N1C(=O)c1ccccc1`, the Activity was 78.12% with MCF7 [1]; “Dose-dependent effect” in data set [5]; 89.5% in [6]; “Non-Toxic” with MCF10; 83.5% with Blood [8]. Further, the concentration for half-maximal inhibition (IC50) in [2] came to 8.84 nM; with MCF7 [3], 102 nM. Besides, the inhibition result in the data set with DNA was “Active”. In data set [7], the inhibition came to 87.3%.
For the compound `O=C1O[C@H]([C@@H](O)CO)C(O)=C1O`, the Activity in [6] worked out at 90.1%.
In data set [2], `CC(=O)CN1C(=O)/C(=N\C(=S)NCc2cc3ccccc3cc2O)c2ccccc21` showed a 50% inhibitory concentration (IC50) of 112 nM. In addition, the Activity result is “Dose-dependent effect” in data set [5] and 68.5% in data set [6]. The same compound registered an inhibition in data set [7] of 24%.
The matching figures for `O=C1/C(=N\C(=S)NCc2cc3ccccc3cc2O)c2ccccc2N1c1ccccc1Cl`: 15.1 nM, “Dose-dependent effect”, 82.7% and 76.5%.
Compound `COc1cccc2c1C(=O)c1c(O)c3c(c(O)c1C2=O)C[C@@](O)(C(=O)CO)C[C@@H]3O[C@H]1C[C@H](N)[C@H](O)[C@H](C)O1` [DOXORUBICIN] registered an Activity in the data set on MCF7 [1] of 78.42%.
As to `CC(=O)N1C(=O)/C(=N\C(=S)NCc2cc3ccccc3cc2O)c2ccccc21`, 10.7 nM corresponded to half-maximal inhibition in [2] (IC50). In addition, the inhibition entry in the data set on DNA is “Active”. In addition, the Activity entry is “Dose-dependent effect” in [5] and 81.2% in [6]. Moreover, the inhibition in data set [7] was determined as 82.7%.
The compound `COc1ccc(CN2C(=O)/C(=N\C(=S)NCc3cc4ccccc4cc3O)c3ccccc32)cc1` came in with an IC50 in data set [2] of 7.64 nM. Moreover, in the data set on DNA, the inhibition entry is “Active”. The results for the Activity result (in data set [5]; in data set [6]; with Blood [8]) were “Dose-dependent effect”, 78% and 83.5%, respectively. The same compound had an inhibition in data set [7] of 88.5%.
For the compound `CN1C(=O)/C(=N\C(=S)NCc2cc3ccccc3cc2O)c2ccccc21`, it took 22.3 nM to reach half-maximal inhibition in data set [2] (IC50). In addition, the inhibition result with DNA was “inactive”. The Activity result was “Dose-dependent effect” in [5] and 74.1% in data set [6]. The compound also came in with an inhibition in [7] of 66.5%.
For `NCCCC[C@H](N[C@@H](CCc1ccccc1)C(=O)O)C(=O)N1CCC[C@H]1C(=O)O`, the inhibition in data set [7] was 89.1%.
